Experimental data taken from patent US20160022720A1, “COMPOSITIONS AND METHODS FOR TREATING DISEASE STATES ASSOCIATED WITH ACTIVATED T CELLS AND/OR B CELLS” (priority 2013, published 2016).
“Also recorded” adds a separate entry of the source.

What was measured:
activated T cells [1] = system: activated T cells; set-up: species or system mice; details: mouse
activated T cells (P14) = format: cell-based, mice; details: for killing of activated T cells in vitro: agent itself, overnight culture
activated T cells [2] = format: cell-based, mice; details: culture of activated T cells with agent
[3] = system: experimental autoimmune encephalitis; details: in vivo
[4] = system: reactivated memory T cells; experiment: Depletion of memory T cells reactivated in vivo with liposomal GP33 peptide in WT mice; details: etoposide 100 mg/kg/dose x2, or etoposide 25 mg/kg/dose + nutlin 50 mg/kg x4
[5] = system: LCMV-infected prf−/− mice; details: mouse, in vivo
HLH = HLH patients, etoposide-based therapy, increased from approximately 0%; cited from earlier work

Which results are given for NC(=O)Nc1cc(-c2cccc(F)c2)sc1C(=O)N[C@H]1CCCNC1 [AZD7762]?
potentiation of low dose etoposide for depletion of activated T cells in vivo (activated T cells [1]): strongly synergizes with etoposide in vivo; potentiation of etoposide killing of activated T cells in vitro (activated T cells (P14)): potentiate etoposide killing of activated T cells in vitro; killing of activated T cells in vitro (activated T cells (P14)): kill activated T cells in vitro; also recorded: selectively kill activated T cells; DNA damage (gammaH2AX) in activated T cells in vitro (activated T cells [2]): leads to accumulation of spontaneous DNA damage; also recorded: led to increasing DNA damage

For NC(=O)C1CCCc2c1[nH]c1ccc(Cl)cc21 (stereo not drawn) [Ex527], which “potentiation of etoposide killing of activated T cells in vitro” value (“potentiation of etoposide killing … in vitro” for short) (activated T cells (P14)) is on record?
The value was “enhance etoposide killing of activated T cells in vitro”.

For C=CCn1c(=O)c2cnc(Nc3ccc(N4CCN(C)CC4)cc3)nc2n1-c1cccc(C(C)(C)O)n1 [MK-1775], which “potentiation of etoposide killing … in vitro” value (activated T cells (P14)) is on record?
Its value is “potentiate etoposide killing of activated T cells in vitro”.

And the “killing of activated T cells in vitro” value (activated T cells (P14))?
Its value is “selectively kill activated T cells”.

For O=C1C(Cl)=C(N2CCOCC2)C(=O)N1c1ccc(Cl)c(Cl)c1 [Ri-1, 3-chloro-1-(3,4-dichlorophenyl)-4-morpholino-1H-pyrrole-2,5-dione], which “potentiation of etoposide killing … in vitro” value (activated T cells (P14)) is on record?
The value was “substantial synergy with etoposide in vitro”.

What about the “killing of activated T cells in vitro” value (activated T cells (P14)) of the same compound?
The value was “kill activated T cells in vitro”.

With CCOc1cc(/C=C2/C(=O)N(c3ccccc3)N=C2C)cc(Cl)c1OCC(=O)OC [Sj-172550] as the compound, how does the “potentiation of etoposide killing … in vitro” value (activated T cells (P14)) read?
The value was “enhance etoposide killing of activated T cells in vitro”.

What does the source list for COc1cc([C@@H]2c3cc4c(cc3[C@@H](O[C@@H]3O[C@@H]5CO[C@@H](C)O[C@H]5[C@H](O)[C@H]3O)[C@H]3COC(=O)[C@H]23)OCO4)cc(OC)c1O [etoposide]?
therapeutic effect in experimental autoimmune encephalitis [3]: highly therapeutic; depletion of reactivated memory T cells in vivo [4]: ablated; inflammatory cytokines/disease-specific inflammatory markers [5]: decreased inflammatory cytokines/disease-specific inflammatory markers; pancytopenia [5]: alleviated pancytopenia; survival / rescue from HLH-like disease [5]: allowed survival; also recorded: rescues LCMV-infected prf−/− mice from HLH-like disease; long-term survival (HLH): 55%

Which “potentiation of low dose etoposide for depletion of activated T cells in vivo” value (activated T cells [1]) does the source give for COc1ccc(C2=NC(c3ccc(Cl)cc3)C(c3ccc(Cl)cc3)N2C(=O)N2CCNC(=O)C2)c(OC(C)C)c1 (stereo not drawn) [nutlin] here?
The value was “potentiates etoposide immunomodulation in vivo”.

What about the “potentiation of etoposide killing … in vitro” value (activated T cells (P14)) of the same compound?
Its value is “dramatically shifts the etoposide:death, dose:response curve”.
